The results in this text go back to publication PMC3731320, “Identification of Benzimidazole Diamides as Selective Inhibitors of the Nucleotide-Binding Oligomerization Domain 2 (NOD2) Signaling Pathway” (PLoS ONE, 2013).

This assay deals with NOD2. The assay is described as follows: MDP-stimulated IL-8 release in 293/hNOD2 cells (HTRF). Type of assay: cell-based, human. The settings on record: Homo sapiens; MDP-stimulated IL-8 production assay in 293/hNOD2 cells; Figures 4 and 5; read-out: NOD2 IC50. The procedure: After 24 hours the amount of IL-8 secreted into the medium was determined by homogeneous time resolved fluorescence (HTRF) assay by the direct addition of a 1:1 mix of europium cryptate and XL665-conjugated anti-IL-8 antibodies according to the manufacturer's instructions (Cisbio).
A general note: TR-FRET usually uses a lanthanide donor and a delayed reading to cut background.
What is called IC50 is the concentration that inhibits the measured activity by half. Regarding `CC(C)c1cccc(NC(=O)Cn2c(CCNC(=O)c3ccccc3)nc3ccccc32)c1` [Compound 3, N-(2-(1-(2-((3-isopropylphenyl)amino)-2-oxoethyl)-1H-benzo[d]imidazol-2-yl)ethyl)benzamide], the concentration for half-maximal inhibition (IC50) was determined as 0.8 ± 0.5 µM.

As to `O=C(Cn1c(CCNC(=O)c2ccccc2)nc2ccccc21)Nc1ccc2sccc2c1` [Compound 4, N-(2-(1-(2-(benzo[b]thiophen-5-ylamino)-2-oxoethyl)-1H-benzo[d]imidazol-2-yl)ethyl)benzamide], the half-inhibitory concentration (IC50) was determined as 1.3 ± 0.02 µM.

Consider `O=C(Cn1c(CCNC(=O)c2ccccc2)nc2ccccc21)Nc1ccc2ccccc2c1` [Compound 5, N-(2-(1-(2-(naphthalen-2-ylamino)-2-oxoethyl)-1H-benzo[d]imidazol-2-yl)ethyl)benzamide], for which the half-inhibitory concentration (IC50) was 1.6 ± 1.3 µM.

As to `Cc1ccc(NC(=O)Cn2c(CCNC(=O)c3ccccc3)nc3ccccc32)cc1C` [Compound 6, N-(2-(1-(2-(3,4-dimethylphenylamino)-2-oxoethyl)-1H-benzo[d]imidazol-2-yl)ethyl)benzamide], the IC50 stood at 2.8 ± 0.1 µM.

For the compound `O=C(Cn1c(CCNC(=O)c2ccccc2)nc2ccccc21)Nc1ccc2occc2c1` [Compound 7, N-(2-(1-(2-(benzofuran-5-ylamino)-2-oxoethyl)-1H-benzo[d]imidazol-2-yl)ethyl)benzamide], the IC50 turned out to be 3.3 ± 0.9 µM.

On to `O=C(Cn1c(CCNC(=O)c2ccccc2)nc2ccccc21)Nc1ccc(Cl)c(Cl)c1` [Compound 8, N-(2-(1-(2-(3,4-dichlorophenylamino)-2-oxoethyl)-1H-benzo[d]imidazol-2-yl)ethyl)benzamide], for which the IC50 is 3.3 ± 2.1 µM.

`O=C(Cn1c(CCNC(=O)c2ccccc2)nc2ccccc21)Nc1ccc2c(c1)C(O)CC2` (stereo not shown) [Compound 9, N-(2-(1-(2-((3-hydroxy-2,3-dihydro-1H-inden-5-yl)amino)-2-oxoethyl)-1H-benzo[d]imidazol-2-yl)ethyl)benzamide]: the IC50 turned out to be 35.2 ± 9.1 µM.

`O=C(Cn1c(CCNC(=O)c2ccccc2)nc2ccccc21)Nc1ccc2c(c1)CCN2` [Compound 10, N-(2-(1-(2-(indolin-5-ylamino)-2-oxoethyl)-1H-benzo[d]imidazol-2-yl)ethyl)benzamide]: the IC50 was greater than 50 µM.

On to `O=C(Cn1c(CCNC(=O)c2ccccc2)nc2ccccc21)Nc1ccc(OCc2ccccc2)cc1` [Compound 11, N-(2-(1-(2-((4-(benzyloxy)phenyl)amino)-2-oxoethyl)-1H-benzo[d]imidazol-2-yl)ethyl)benzamide], for which the IC50 is greater than 50 µM.

As to `O=C(Cn1c(CCNC(=O)c2ccccc2)nc2ccccc21)Nc1ccc2c(c1)NCC2` [Compound 12, N-(2-(1-(2-(indolin-6-ylamino)-2-oxoethyl)-1H-benzo[d]imidazol-2-yl)ethyl)benzamide], the concentration for half-maximal inhibition (IC50) is greater than 50 µM.

Turning to `O=C(Cn1c(CCNC(=O)c2ccccc2)nc2ccccc21)Nc1ccc(Oc2ccccc2)cc1` [Compound 13, N-(2-(1-(2-oxo-2-((4-phenoxyphenyl)amino)ethyl)-1H-benzo[d]imidazol-2-yl)ethyl)benzamide], the IC50 is greater than 50 µM.

As to `O=C(Cn1c(CCNC(=O)c2ccccc2)nc2ccccc21)Nc1ccc2[nH]ccc2c1` [Compound 14, N-(2-(1-(2-(1H-indol-5-ylamino)-2-oxoethyl)-1H-benzo[d]imidazol-2-yl)ethyl)benzamide], the IC50 is greater than 50 µM.

For the compound `O=C(Cn1c(CCNC(=O)c2cccc3ccccc23)nc2ccccc21)Nc1ccc2c(c1)CCC2` [Compound 15, N-(2-(1-(2-((2,3-dihydro-1H-inden-5-yl)amino)-2-oxoethyl)-1H-benzo[d]imidazol-2-yl)ethyl)-1-naphthamide], the half-inhibitory concentration (IC50) was 3.4 ± 0.2 µM.

With `O=C(Cn1c(CCNC(=O)c2ccccc2Cl)nc2ccccc21)Nc1ccc2c(c1)CCC2` [Compound 16, 2-chloro-N-(2-(1-(2-((2,3-dihydro-1H-inden-5-yl)amino)-2-oxoethyl)-1H-benzo[d]imidazol-2-yl)ethyl)benzamide], the concentration for half-maximal inhibition (IC50) worked out at 3.8 ± 1.4 µM.

With `Cc1ccccc1C(=O)NCCc1nc2ccccc2n1CC(=O)Nc1ccc2c(c1)CCC2` [Compound 17, N-(2-(1-(2-((2,3-dihydro-1H-inden-5-yl)amino)-2-oxoethyl)-1H-benzo[d]imidazol-2-yl)ethyl)-2-methylbenzamide], the IC50 worked out at 4.7 ± 0.5 µM.

For the compound `Cc1ccc(C(=O)NCCc2nc3ccccc3n2CC(=O)Nc2ccc3c(c2)CCC3)cc1` [Compound 18, N-(2-(1-(2-((2,3-dihydro-1H-inden-5-yl)amino)-2-oxoethyl)-1H-benzo[d]imidazol-2-yl)ethyl)-4-methylbenzamide], the IC50 was greater than 50 µM.

Take `O=C(Cn1c(CCNC(=O)c2ccc(Cl)c(Cl)c2)nc2ccccc21)Nc1ccc2c(c1)CCC2` [Compound 19, 3,4-dichloro-N-(2-(1-(2-((2,3-dihydro-1H-inden-5-yl)amino)-2-oxoethyl)-1H-benzo[d]imidazol-2-yl)ethyl)benzamide]: the IC50 was greater than 50 µM.

As for `O=C(Cn1c(CCNC(=O)c2cccc(C(F)(F)F)c2)nc2ccccc21)Nc1ccc2c(c1)CCC2` [Compound 20, N-(2-(1-(2-((2,3-dihydro-1H-inden-5-yl)amino)-2-oxoethyl)-1H-benzo[d]imidazol-2-yl)ethyl)-3-(trifluoromethyl)benzamide], the IC50 was greater than 50 µM.

On to `Cc1cccc(C(=O)NCCc2nc3ccccc3n2CC(=O)Nc2ccc3c(c2)CCC3)c1` [Compound 21, N-(2-(1-(2-((2,3-dihydro-1H-inden-5-yl)amino)-2-oxoethyl)-1H-benzo[d]imidazol-2-yl)ethyl)-3-methylbenzamide], for which the half-inhibitory concentration (IC50) is greater than 50 µM.

For the compound `O=C(Cn1c(CCNC(=O)c2cccc(Cl)c2)nc2ccccc21)Nc1ccc2c(c1)CCC2` [Compound 22, 3-chloro-N-(2-(1-(2-((2,3-dihydro-1H-inden-5-yl)amino)-2-oxoethyl)-1H-benzo[d]imidazol-2-yl)ethyl)benzamide], the IC50 is greater than 50 µM.

`O=C(Cn1c(CCNC(=O)c2ccccc2)nc2cc(Cl)ccc21)Nc1ccc2c(c1)CCC2` [Compound 23, N-(2-(5-chloro-1-(2-((2,3-dihydro-1H-inden-5-yl)amino)-2-oxoethyl) -1H-benzo[d]imidazol-2-yl)ethyl)benzamide]: the IC50 came to 1.3 ± 0.1 µM.

As for `O=C(Cn1c(CCNC(=O)c2ccccc2)nc2ccc(Cl)cc21)Nc1ccc2c(c1)CCC2` [Compound 24, N-(2-(6-chloro-1-(2-((2,3-dihydro-1H-inden-5-yl)amino)-2-oxoethyl)-1H-benzo[d]imidazol-2-yl)ethyl)benzamide], the IC50 worked out at 4.2 ± 0.1 µM.

For `Cc1ccc2c(c1)nc(CCNC(=O)c1ccccc1)n2CC(=O)Nc1ccc2c(c1)CCC2` [Compound 25, N-(2-(1-(2-((2,3-dihydro-1H-inden-5-yl)amino)-2-oxoethyl)-5-methyl-1H-benzo[d]imidazol-2-yl)ethyl)benzamide], the IC50 came to 4.6 ± 1.9 µM.

For the compound `COc1ccc2c(c1)nc(CCNC(=O)c1ccccc1)n2CC(=O)Nc1ccc2c(c1)CCC2` [Compound 26, N-(2-(1-(2-((2,3-dihydro-1H-inden-5-yl)amino)-2-oxoethyl)-5-methoxy-1H-benzo[d]imidazol-2-yl)ethyl)benzamide], the half-inhibitory concentration (IC50) was greater than 50 µM.

`COc1ccc2nc(CCNC(=O)c3ccccc3)n(CC(=O)Nc3ccc4c(c3)CCC4)c2c1` [Compound 27, N-(2-(1-(2-((2,3-dihydro-1H-inden-5-yl)amino)-2-oxoethyl)-6-methoxy-1H-benzo[d]imidazol-2-yl)ethyl)benzamide]: the IC50 was greater than 50 µM.

As for `Cc1cccc2c1nc(CCNC(=O)c1ccccc1)n2CC(=O)Nc1ccc2c(c1)CCC2` [Compound 28, N-(2-(1-(2-((2,3-dihydro-1H-inden-5-yl)amino)-2-oxoethyl)-4-methyl-1H-benzo[d]imidazol-2-yl)ethyl)benzamide], the concentration for half-maximal inhibition (IC50) is greater than 50 µM.

For `CN(CCc1nc2ccccc2n1CC(=O)N(C)c1ccc2c(c1)CCC2)C(=O)c1ccccc1` [Compound 30, N-(2-(1-(2-((2,3-dihydro-1H-inden-5-yl)(methyl)amino)-2-oxoethyl)-1H-benzo[d]imidazol-2-yl)ethyl)-N-methylbenzamide], the half-maximal inhibitory concentration (IC50) amounted to 17 ± 2 µM.

`CN(C(=O)Cn1c(CCNC(=O)c2ccccc2)nc2ccccc21)c1ccc2c(c1)CCC2` [Compound 31, N-(2-(1-(2-((2,3-dihydro-1H-inden-5-yl)(methyl)amino)-2-oxoethyl)-1H-benzo[d]imidazol-2-yl)ethyl)benzamide]: the IC50 is 20 µM.

On to `CN(CCc1nc2ccccc2n1CC(=O)Nc1ccc2ccccc2c1)C(=O)c1ccccc1` [Compound 32, N-methyl-N-(2-(1-(2-(naphthalen-2-ylamino)-2-oxoethyl)-1H-benzo[d]imidazol-2-yl)ethyl)benzamide], for which the half-maximal inhibitory concentration (IC50) was 0.2 ± 0.01 µM.

For `CC(C)c1cccc(NC(=O)Cn2c(CCN(C)C(=O)c3ccccc3)nc3ccccc32)c1` [Compound 33, N-(2-(1-(2-((3-isopropylphenyl)amino)-2-oxoethyl)-1H-benzo[d]imidazol-2-yl)ethyl)-N-methylbenzamide], the IC50 is 0.3 ± 0.01 µM.

In the case of `CN(CCc1nc2ccccc2n1CC(=O)Nc1ccc2sccc2c1)C(=O)c1ccccc1` [Compound 34, N-(2-(1-(2-(benzo[b]thiophen-5-ylamino)-2-oxoethyl)-1H-benzo[d]imidazol-2-yl)ethyl)-N-methylbenzamide], the concentration for half-maximal inhibition (IC50) was 0.6 ± 0.1 µM.

With `CN(CCc1nc2ccccc2n1CC(=O)Nc1ccc(Cl)c(Cl)c1)C(=O)c1ccccc1` [Compound 35, N-(2-(1-(2-((3,4-dichlorophenyl)amino)-2-oxoethyl)-1H-benzo[d]imidazol-2-yl)ethyl)-N-methylbenzamide], the IC50 turned out to be 0.9 ± 0.2 µM.

In the case of `CN(CCc1nc2ccccc2n1CC(=O)Nc1ccc2occc2c1)C(=O)c1ccccc1` [Compound 36, N-(2-(1-(2-(benzofuran-5-ylamino)-2-oxoethyl)-1H-benzo[d]imidazol-2-yl)ethyl)-N-methylbenzamide], the half-inhibitory concentration (IC50) was determined as 1.3 µM.

On to `Cc1ccc(NC(=O)Cn2c(CCN(C)C(=O)c3ccccc3)nc3ccccc32)cc1C` [Compound 37, N-(2-(1-(2-((3,4-dimethylphenyl)amino)-2-oxoethyl)-1H-benzo[d]imidazol-2-yl)ethyl)-N-methylbenzamide], for which the IC50 was 1.6 ± 0.1 µM.
